The record followed here is patent US20260191874A1, “FUSED AMINO PYRIMIDINE COMPOUNDS FOR TREATMENT OF AUTISM SPECTRUM DISORDER, OBSESSIVE COMPULSIVE DISORDER AND TICS” (Ovid Therapeutics Inc., priority 2024, published 2026).

A value given as a limit tells only on which side of the number the result lay.

For assay [1], the target named is T1, KCC3 (Homo sapiens, UniProt Q9UHW9).
T1 construct: expressed in transfected cells; host or cells: HEK-293
T1 sequence (Q9UHW9 1-1150): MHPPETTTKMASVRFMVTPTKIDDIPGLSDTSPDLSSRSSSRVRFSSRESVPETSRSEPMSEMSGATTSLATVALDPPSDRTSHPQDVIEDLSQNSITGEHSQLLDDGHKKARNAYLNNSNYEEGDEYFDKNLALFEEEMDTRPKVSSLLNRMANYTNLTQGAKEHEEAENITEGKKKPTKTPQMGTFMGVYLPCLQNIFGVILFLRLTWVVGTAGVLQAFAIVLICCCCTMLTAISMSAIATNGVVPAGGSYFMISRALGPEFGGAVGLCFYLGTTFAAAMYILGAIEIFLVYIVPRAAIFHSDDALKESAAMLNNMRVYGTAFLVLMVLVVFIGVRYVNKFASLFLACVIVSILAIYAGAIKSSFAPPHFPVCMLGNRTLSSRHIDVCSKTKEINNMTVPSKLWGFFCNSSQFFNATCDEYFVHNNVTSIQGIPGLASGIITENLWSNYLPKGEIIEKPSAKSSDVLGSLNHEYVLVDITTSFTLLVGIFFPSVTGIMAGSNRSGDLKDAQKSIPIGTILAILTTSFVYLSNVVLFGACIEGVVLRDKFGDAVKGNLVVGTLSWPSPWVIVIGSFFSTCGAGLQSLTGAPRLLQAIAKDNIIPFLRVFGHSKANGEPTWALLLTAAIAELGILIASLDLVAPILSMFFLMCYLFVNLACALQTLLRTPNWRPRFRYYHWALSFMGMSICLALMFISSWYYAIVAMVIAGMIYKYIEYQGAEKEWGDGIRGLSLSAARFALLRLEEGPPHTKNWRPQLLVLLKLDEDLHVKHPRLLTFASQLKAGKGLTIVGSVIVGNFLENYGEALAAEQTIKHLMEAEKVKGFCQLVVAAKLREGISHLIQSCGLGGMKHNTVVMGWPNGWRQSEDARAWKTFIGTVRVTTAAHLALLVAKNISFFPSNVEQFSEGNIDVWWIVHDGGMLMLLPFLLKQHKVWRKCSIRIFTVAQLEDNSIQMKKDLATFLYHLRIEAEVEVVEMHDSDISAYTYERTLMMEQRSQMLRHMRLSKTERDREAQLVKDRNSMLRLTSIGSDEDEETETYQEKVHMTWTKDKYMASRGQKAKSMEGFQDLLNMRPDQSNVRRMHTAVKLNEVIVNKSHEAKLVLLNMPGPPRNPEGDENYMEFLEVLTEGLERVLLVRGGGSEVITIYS
The assay is described as follows: Tl+ flux assay in HEK-293 cells expressing KCC3. The class given is cell-based. Conditions: read-out: concentration at which effects on KCC3 were seen (EC50 chart, FIG. 1G). The procedure:
FLIPR TI Flux assay. HEK-293 cells were washed with HBSS, and then incubated with loading buffer containing TI sensitive fluorescent dye (https://www.moleculardevices.com), 20 μM bumetanide 20 μM ouabain and 2.5 mM probenecid for 1 h at room temperature (RT) under control conditions or with drugs in the dark using a FlexStation 3 microplate reader (Molecular Devices) and imaged […] for 30 min. Stimulus buffer was added containing 5 mM K^+/0.5 mM Tl^+ and cells were imaged every 1.5 over a 190 second time course The initial rate Tl^+ uptake (Relative Fluorescence Units (RFU) per second) was determined following addition of the stimulus buffer as outlined previously (Conway et al., 2017, supra) (Lee et al., 2022, supra).
Several studies have shown that the activity and plasma membrane accumulation of KCC2 is potentiated via phosphorylation of S940, a process mediated by the activity of protein kinase C and protein phosphatase 1 (Lee et al., 2011, supra; Lee et al., J Biol Chem 282, 29777-29784 (2007); Moore et al., Proc. Natl. Acad. Sci. U.S.A 115, 10166-10171 (2018); Moore et al., Trends Neurosci. 40, 555-571 (2017); Silayeva et al., Proc. Natl. Acad. Sci. U.S.A 112, 3523-3528 (2015)). […] Compared to KCC2, effects on KCC3, KCC4, and NKCC1 were only seen at concentrations more than 35-fold that of KCC2 (≥100 μM) (FIG. 1G).

In assay [2] the test system is acute brain slices. The assay is described as follows: Acute brain slices exposed to 0-Mg.

For `C[C@@H]1CN(c2nc3c(c(Nc4ccc(C5CCCCC5)cc4)n2)COC3)CCO1` [Compound A, (R)—N-(4-cyclohexylphenyl)-2-(2-methylmorpholino)-5,7-dihydrofuro[3,4-d]pyrimidin-4-amine], the EC50 in assay [1] was ≥ 100 µM. The “neuronal Cl− accumulation and development of late recurrent discharges (LRDs)” value in assay [2] is reported as “reduced”.
